Experimental data: patent publication US10214546B2, “Btk inhibitors” (MERCK SHARP & DOHME CORP., priority 2014, dated 2019)
Where two headings read alike, the source gives them in different places.

How the values were obtained:
[1] = target: BTK enzyme (recombinant full-length BTK, hBTK) (Homo sapiens (Human), UniProt Q06187); assay: BTK enzymatic activity LANCE TR-FRET assay; format: biochemical; conditions: 50 pM hBTK, 25 μM ATP, 2 μM biotin-A5-peptide; compound range 1 μM to 0.017 nM; read-out: BTK binding IC50
[2] = tested on: adenosine uptake into HeLa cells; assay: [3H]Adenosine uptake assay in HeLa cells; format: cell-based; conditions: compound range 10 μM to 0.032 nM
How it was run: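 HeLa cells in HBSS + 5% FBS were preincubated 30 min at ambient temperature with compound (ten-point 1:3 series, 10 µM–[…] final), then given [3H]adenosine (added as a 500 nM solution) for 60 min. Cell-associated label was read by scintillating-plate proximity counting; IC50 from 4-parameter fit of cps versus log concentration.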

[3] = Homo sapiens, HeLa, [3H]adenosine accumulation in HeLa cells, read-out: ADU inhibition IC50
[4] = [3H]adenosine accumulation in HeLa cells, read-out: ADU inhibition IC50
[5] = Homo sapiens, HeLa, read-out: ADU inhibition IC50 (nM), [3H]adenosine accumulation in HeLa cells

Chain of BTK enzyme (recombinant full-length BTK, hBTK) (Q06187 whole entry): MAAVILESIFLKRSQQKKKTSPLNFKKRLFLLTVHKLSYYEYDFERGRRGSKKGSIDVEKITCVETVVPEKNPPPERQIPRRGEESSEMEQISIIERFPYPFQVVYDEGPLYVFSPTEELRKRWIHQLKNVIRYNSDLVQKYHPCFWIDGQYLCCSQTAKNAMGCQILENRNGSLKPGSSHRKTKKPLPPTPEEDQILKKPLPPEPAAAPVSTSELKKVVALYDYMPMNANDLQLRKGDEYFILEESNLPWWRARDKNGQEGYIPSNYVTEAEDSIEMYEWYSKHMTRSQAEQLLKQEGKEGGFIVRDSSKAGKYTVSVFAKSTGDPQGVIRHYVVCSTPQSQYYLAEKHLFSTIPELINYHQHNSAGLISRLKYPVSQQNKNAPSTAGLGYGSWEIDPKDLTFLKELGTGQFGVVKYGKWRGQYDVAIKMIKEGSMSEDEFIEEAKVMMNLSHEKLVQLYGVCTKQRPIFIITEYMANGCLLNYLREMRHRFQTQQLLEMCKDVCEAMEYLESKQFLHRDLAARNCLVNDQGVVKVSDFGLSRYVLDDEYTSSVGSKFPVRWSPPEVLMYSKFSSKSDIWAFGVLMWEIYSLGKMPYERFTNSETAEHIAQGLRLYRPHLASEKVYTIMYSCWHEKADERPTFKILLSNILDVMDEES

SMILES	IC50 [1] [µM]	IC50 [2, 3] [nM]	IC50 [2, 4] [nM]	IC50 [2, 5] [nM]
CN1CC[C@H]2CC[C@H](c3nc(-c4ccc([C@@](C)(O)c5cccc(C(F)(F)F)c5)cc4)c4c(N)nccn34)CN2C1=O [Example 118, (4aR,7S)-7-[8-amino-1-(4-{(1R)-1-hydroxy-1-[3-(trifluoromethyl)phenyl]ethyl}phenyl)imidazo [1,5-a]pyrazin-3-yl]-2-methyloctahydro-1H-pyridol[1,2-c]pyrimidin-1-one]	0.0832	1490	–	–
CC(C)N1CC(=O)N2C[C@H](c3nc(-c4ccc([C@@](C)(O)c5cccc(C(F)(F)F)c5)cc4)c4c(N)nccn34)CC[C@H]2C1 [Example 119, (7R,9aS)-7-(8-amino-1-(4-{(1R)-1-hydroxy-1-[3-(trifluoromethyl)phenyl]ethyl}phenyl)imidazo [1,5-a]pyrazin-3-yl]-2-(1-methylethyl)octahydro-4H-pyrido[1,2-a]pyrazin-4-one]	0.0331	2410	–	–
CC(C)N1CC(=O)N2C[C@@H](c3nc(-c4ccc([C@@](C)(O)c5cccc(C(F)(F)F)c5)cc4)c4c(N)nccn34)CC[C@@H]2C1 [Example 120, (7S,9aR)-7-[8-amino-1-(4-{(1R)-1-hydroxy-1-[3-(trifluoromethyl)phenyl]ethyl}phenyl)imidazo [1,5-a]pyrazin-3-yl]-2-(1-methylethyl)octahydro-4H-pyrido[1,2-a]pyrazin-4-one]	0.0051	4670	–	–
C[C@@](O)(c1ccc(-c2nc([C@@H]3CC[C@H]4CCC(=O)N4C3)n3c(Cl)cnc(N)c23)cc1)c1cccc(CC(F)(F)F)c1 [Example 121, (6R,8aS)-6-[8-amino-5-chloro-1-(4-{(1R)-1-hydroxy-1-[3-(2,2,2-trifluoroethyl)phenyl]ethyl}phenyl)imidazo[1,5-a]pyrazin-3-yl]hexahydroindolizin-3(2H)-one]	0.00018	1940	–	–
C[C@](O)(c1ccc(-c2nc([C@@H]3CC[C@H]4CCC(=O)N4C3)n3c(Cl)cnc(N)c23)cc1)c1cccc(CC(F)(F)F)c1 [Example 122, (6R,8aS)-6-[8-amino-5-chloro-1-(4-{(1S)-1-hydroxy-1-(3-(2,2,2-trifluoroethyl)phenyl]ethyl}phenyl)imidazo[1,5-a]pyrazin-3-yl]hexahydroindolizin-3(2H)-one]	0.0027	966	–	–
CC(C)(c1cccc([C@@](C)(O)c2ccc(-c3nc([C@@H]4CC[C@H]5CCC(=O)N5C4)n4c(Cl)cnc(N)c34)cc2)c1)C(F)(F)F [Example 123, (6R,8aS)-6-[8-amino-5-chloro-1-(4-{(1S)-1-hydroxy-1-[3-(2,2,2-trifluoro-1,1-dimethylethyl)phenyl]ethyl}phenyl)imidazo[1,5-a]pyrazin-3-yl]hexahydroindolizin-3(2H)-one]	0.117	945	–	–
CC(C)(c1cccc([C@](C)(O)c2ccc(-c3nc([C@@H]4CC[C@H]5CCC(=O)N5C4)n4c(Cl)cnc(N)c34)cc2)c1)C(F)(F)F [Example 124, (6R,8aS)-6-[8-amino-5-chloro-1-(4-{(1R)-1-hydroxy-1-[3-(2,2,2-trifluoro-1,1-dimethylethyl)phenyl]ethyl}phenyl)imidazo[1,5-a]pyrazin-3-yl]hexahydroindolizin-3(2H)-one]	0.0012	1450	–	–
Nc1nccn2c([C@@H]3CC[C@H]4CCC(=O)N4C3)nc(-c3ccc(C(O)c4cc(C(F)(F)F)ccc4F)cc3)c12 (stereo partly drawn) [Example 125, (6R,8aS)-6-(8-amino-1-(4-{[2-fluoro-5-(trifluoromethyl)phenyl] (hydroxy)methyl}phenyl)imidazo[1,5-a]pyrazin-3-yl]hexahydroindolizin-3(2H)-one]	0.824	1180	–	–
Nc1ncc(Cl)n2c([C@@H]3CC[C@H]4CCC(=O)N4C3)nc(-c3ccc(C(O)c4cc(C(F)(F)F)ccc4F)cc3)c12 (stereo partly drawn) [Example 126]	1	1070	–	–
Cc1ccc(C(F)(F)F)cc1C(O)c1ccc(-c2nc([C@@H]3CC[C@H]4CCC(=O)N4C3)n3ccnc(N)c23)cc1 (stereo partly drawn) [Example 127, (6R,8aS)-6-[8-amino-1-(4-{hydroxy[2-methyl-5-(trifluoromethyl)phenyl]methyl}phenyl)imidazo [1,5-a]pyrazin-3-yl]hexahydroindolizin-3(2H)-one]	0.459	2140	–	–
Nc1nccn2c([C@@H]3CC[C@H]4CCC(=O)N4C3)nc(-c3ccc(C(O)c4cc(C(F)(F)F)ccc4F)cc3)c12 (stereo partly drawn) [Example 128]	0.0124	–	1470	–
Nc1ncc(Cl)n2c([C@@H]3CC[C@H]4CCC(=O)N4C3)nc(-c3ccc(C(O)c4cc(C(F)(F)F)ccc4F)cc3)c12 (stereo partly drawn) [Example 129, (6R,8aS)-6-[8-amino-5-chloro-1-(4-{[2-fluoro-5-(trifluoromethyl)phenyl] (hydroxy)methyl}phenyl)imidazo[1,5-a]pyrazin-3-yl]hexahydroindolizin-3(2H)-one]	0.0122	–	1660	–
Cc1ccc(C(F)(F)F)cc1C(O)c1ccc(-c2nc([C@@H]3CC[C@H]4CCC(=O)N4C3)n3ccnc(N)c23)cc1 (stereo partly drawn) [Example 130, (6R,8aS)-6-[8-amino-1-(4-{hydroxy[2-methyl-5-(trifluoromethyl)phenyl]methyl}phenyl)imidazo [1,5-a]pyrazin-3-yl]hexahydroindolizin-3(2H)-one]	0.0127	–	1440	–
CC(F)(F)c1cccc([C@@](C)(O)c2ccc(-c3nc([C@@H]4CC[C@H]5CCC(=O)N5C4)n4ccnc(N)c34)cc2)c1 [Example 131, (6R,8aS)-6-[8-amino-1-(4-{(1S)-1-[3-(1,1-difluoroethyl)phenyl]-1-hydroxyethyl}phenyl)imidazo[1,5-a]pyrazin-3-yl]hexahydroindolizin-3(2H)-one]	0.0644	436	–	–
CC(F)(F)c1cccc([C@](C)(O)c2ccc(-c3nc([C@@H]4CC[C@H]5CCC(=O)N5C4)n4ccnc(N)c34)cc2)c1 [Example 132, (6R,8aS)-6-[8-amino-1-(4-{(1R)-1-[3-(1,1-difluoroethyl)phenyl]-1-hydroxyethyl}phenyl)imidazo[1,5-a]pyrazin-3-yl]hexahydroindolizin-3(2H)-one]	0.0003	2950	–	–
C[C@](O)(c1ccc(-c2nc([C@@H]3CC[C@H]4CCC(=O)N4C3)n3c(Cl)cnc(N)c23)cc1)c1cccc(C(F)F)c1 [Example 133, (6R,8aS)-6-[8-amino-5-chloro-1-(4-{(1S)-1-[3-(difluoromethyl)phenyl]-1-hydroxyethyl}phenyl)imidazo[1,5-a]pyrazin-3-yl]hexahydroindolizin-3(2H)-one]	0.118	460	–	–
C[C@@](O)(c1ccc(-c2nc([C@@H]3CC[C@H]4CCC(=O)N4C3)n3c(Cl)cnc(N)c23)cc1)c1cccc(C(F)F)c1 [Example 134, (6R,8aS)-6-[8-amino-5-chloro-1-(4-{(1R)-1-[3-(difluoromethyl)phenyl]-1-hydroxyethyl}phenyl)imidazo[1,5-a]|pyrazin-3-yl]hexahydroindolizin-3(2H)-one]	0.00014	2330	–	–
C[C@](O)(c1ccc(-c2nc([C@@H]3CC[C@H]4CCC(=O)N4C3)n3ccnc(N)c23)cc1)c1cncc(C(F)(F)F)c1 [Example 135, (6R,8aS)-6-[8-amino-1-(4-{(1S)-1-hydroxy-1-[5-(trifluoromethyl)pyridin-3-yl]ethyl}phenyl)imidazo [1,5-a]pyrazin-3-yl]hexahydroindolizin-3(2H)-one]	1	973	–	–
C[C@@](O)(c1ccc(-c2nc([C@@H]3CC[C@H]4CCC(=O)N4C3)n3ccnc(N)c23)cc1)c1cncc(C(F)(F)F)c1 [Example 136, (6R,8aS)-6-[8-amino-1-(4-{(1R)-1-hydroxy-1-[5-(trifluoromethyl)pyridin-3-yl]ethyl}phenyl)imidazo [1,5-a]pyrazin-3-yl]hexahydroindolizin-3(2H)-one]	0.0876	4620	–	–
C[C@](O)(c1ccc(-c2nc([C@@H]3CC[C@H]4CCC(=O)N4C3)n3ccnc(N)c23)cc1)c1cccc(C(F)(F)F)n1 [Example 137, (6R,8aS)-6-[8-amino-1-(4-{(1S)-1-hydroxy-1-[6-(trifluoromethyl)pyridin-2-yl]ethyl}phenyl)imidazo [1,5-a]pyrazin-3-yl]hexahydroindolizin-3(2H)-one]	0.877	865	–	–
C[C@@](O)(c1ccc(-c2nc([C@@H]3CC[C@H]4CCC(=O)N4C3)n3ccnc(N)c23)cc1)c1cccc(C(F)(F)F)n1 [Example 138, (6R,8aS)-6-[8-amino-1-(4-{(1R)-1-hydroxy-1-[6-(trifluoromethyl)pyridin-2-yl]ethyl}phenyl)imidazo [1,5-a]pyrazin-3-yl]hexahydroindolizin-3(2H)-one]	0.025	4760	–	–
CC(F)(F)c1cccc([C@@](C)(O)c2ccc(-c3nc([C@@H]4CC[C@H]5CCC(=O)N5C4)n4c(Cl)cnc(N)c34)cc2)c1 [Example 139, (6R,8aS)-6-[8-amino-5-chloro-1-(4-{(1S)-1-[3-(1,1-difluoroethyl)phenyl]-1-hydroxyethyl}phenyl)imidazo[1,5-a]pyrazin-3-yl]hexahydroindolizin-3(2H)-one]	0.0249	–	–	449
CC(F)(F)c1cccc([C@](C)(O)c2ccc(-c3nc([C@@H]4CC[C@H]5CCC(=O)N5C4)n4c(Cl)cnc(N)c34)cc2)c1 [Example 140]	0.00022	–	–	1200
COc1cc([C@@](C)(O)c2cccc(C(F)(F)F)c2)ccc1-c1nc([C@@H]2CC[C@H]3CCC(=O)N3C2)n2ccnc(N)c12 [Example 141, (6R,8aS)-6-[8-amino-1-(4-{(1S)-1-hydroxy-1-[3-(trifluoromethyl)phenyl]ethyl}-2-methoxyphenyl)imidazo [1,5-a]pyrazin-3-yl]hexahydroindolizin-3(2H)-one]	0.0938	1980	–	–
